Results on three molecules are retold here after patent US9789119B2, “Cognitive function” (priority 2010, dated 2017).

Entries after “also recorded” stand apart in the source; their conditions may differ.

For one assay, the system named is Ts65Dn mice. To be noted: short-term administration of low doses; cited from earlier work.
The subject of assay [1] is Ts65Dn mouse model of Down syndrome. Kind of assay: Novel Object Recognition (NOR) task in Ts65Dn mice. The assay is classed as in vivo. To be noted: 0.3 mg/kg IP daily for two weeks, NOR two weeks after treatment end. As to the method:
In this case, the effect of the noncompetitive GABAA receptor antagonist pentylenetetrazole (PTZ) on cognitive function in the Ts65Dn mouse model of Down syndrome was assessed with the Novel Object Recognition (NOR) task.
(§1) The NOR task is based on the established finding that mice preferentially explore novel objects relative to remembered objects. The test consists of a training session and a testing session. During the training session, a mouse is allowed 15 minutes to explore freely a training chamber that contains two objects. The amount of time the mouse uses to explore each object is quantified using video monitoring. The mouse is removed from the training session for 24 hours, during which time one of the objects in the training chamber is replaced with a novel object. The mouse is returned to the training chamber for the testing session, during which video monitoring is again used to quantify the amount of time the mouse uses to explore each object.
Ts65Dn mice and wild-type (2N) controls were maintained on a 12:12 light:dark (LD) cycle. At three months of age, their NOR task performance was determined. The animals then received daily intraperitoneal (IP) injections of pentylenetetrazole (PTZ; 0.3 mg/kg) for two weeks (“treatment”). […] Two weeks after treatment end, the NOR task performance of all mice was again determined. […]

Another assay relates to wild-type (2N) mice. Kind of assay: Novel Object Recognition (NOR) task in wild-type (2N) mice. The assay is classed as in vivo, mouse. The conditions noted are these: 0.3 mg/kg IP daily for two weeks, light cycle (FIG. 1 panel B). As to the method: as §1
Ts65Dn mice and wild-type (2N) controls were maintained on a 12:12 light:dark (LD) cycle. At three months of age, their NOR task performance was determined. The animals then received daily intraperitoneal (IP) injections of pentylenetetrazole (PTZ; 0.3 mg/kg) for two weeks (“treatment”). A control group received vehicle control (saline; NaCl) only for the same duration. The IP injections occurred near the middle of the light phase or during the dark phase of a LD cycle. Two weeks after treatment end, the NOR task performance of all mice was again determined. All NOR tasks were performed during the light phase of a LD cycle. […]

For the molecule picrotoxin [PTX], in the assay with Ts65Dn mice, the cognitive function entry is recorded as “improve in a long-lasting manner” and the “hippocampal LTP induction” value was “improve in a long-lasting manner”.

As for `CC(C)(C)[C@]1(O)CC2OC(=O)CC23C(=O)OC2OC(=O)[C@H](O)C231` (stereo partly drawn) [BB, bilobalide], in the assay on Ts65Dn mice, the cognitive function entry is listed as “improve in a long-lasting manner” and the “hippocampal LTP induction” value was “improve in a long-lasting manner”.

For the molecule `C1CCc2nnnn2CC1` [PTZ, pentylenetetrazole], the “performance in the Novel Object Recognition (NOR) task” value in assay [1] (dark phase (wakefulness)) was “some improvement relative to the saline-injected controls; also recorded: less effective in improving performance in the NOR task; also recorded: less effective in improving cognitive function”; in assay [1] (middle of light phase (sleep)), “spent a significantly larger proportion of time of the testing session exploring the novel object; also recorded: normalizes performance in the Novel Object Recognition (NOR) task; also recorded: can improve cognition”. In addition, the “time spent exploring objects in NOR task” value in the assay with wild-type (2N) mice is on record as “more time on the new object during the testing session”. In the assay with Ts65Dn mice, the cognitive function entry was “improve in a long-lasting manner”. The “hippocampal LTP induction” value with Ts65Dn mice is “improve in a long-lasting manner”.
